Values joined by “and” are separate entries in the source; they are usually repeats but may differ in a detail not shown here. Equal entries are not always repeated. Residues, ends and D or L forms follow the SMILES beside them. *: point of attachment. Cbz = O=C(OCc1ccccc1)*
Assays:
PD-L1 in U937 cells = experiment: PD-L1 levels in U937 cells by western blotting and flow cytometry; assay type: cell-based, human
Experimental: (§1) Fig. 1 EGFR inhibitors were screened to reduce membrane PD-L1 levels. a High-throughput screening of 2125 FDA-approved drugs or drug candidates. U937 cells were incubated with IFNγ (100 ng/mL) for 48 h, treated with the drugs at 10 μM for 12 h. Ruxolitinib (Rux) was used as a positive control. The hit compounds that induced the decrease of PD-L1 levels are shown in blue. The depth of blue represents decreased level of PD-L1. The heatmap represents the targeted pathways obtained from the high-throughput screening, based upon decreased membrane PD-L1 level detected by flow cytometry. b Immunoblotting of PD-L1 in U937 cells treated with ES-072 (ES) or AZD9291 (AZD) at indicated concentrations for 12 h. ES and AZD are EGFR inhibitors. c, d Median fluorescence intensity (MFI) (c) and relative quantification (d) of PD-L1 in U937 cells treated with 10 μM ES-072 or 10 μM AZD9291 for 12 h. Data represent means ± SEM, n = 18, 6 independent repeats, ****P < 0.0001. e–g Immunoblotting (e, f) and flow cytometry (g) analysis of PD-L1 levels in U937 cells treated with 10 μM ES-072 or 10 μM AZD9291 for the indicated times. h, i Immunoblottings (h) of PD-L1 and β-TrCP, relative quantification (i) of PD-L1 MFI in H1975 cells transfected with non-targeting siRNA (si-CTRL) or β-TrCP siRNAs (si-β-TrCP) and treated with or without 10 μM ES-072/AZD9291 for 12 h. Data represent means ± SEM, n = 9, 3 independent repeats, NS: no significant; ****P < 0.0001. j–l Immunoblotting (j) and flow cytometry analysis (k) with relative quantification (l) of PD-L1 in H1975 cells treated with 10 μM ES-072 or AZD9291, and/or 5 μM LY2090314 (LY) for 12 h. LY is a GSK3 inhibitor. […]
For western blot analysis, cells were collected and washed with PBS, then lysed in radioimmunoprecipitation assay (RIPA) buffer (1% Triton X-100, 100 mM Tris-HCl pH 8.8, 100 mM NaCl, 0.5 mM EDTA). […] The supernatant was collected and the protein concentration was measured by bicinchoninic acid reaction. […] Signals were detected using chemiluminescence reagents (#4AW001-500, 4A649 Biotech, Co.). […]

PD-L1 in H1975 cells = experiment: PD-L1 levels in H1975 cells by immunoblotting and flow cytometry; assay type: cell-based, human
Experimental: as §1, with “h.” for “h. LY is a GSK3 inhibitor.”
Fig. 5 GSK3α-mediated phosphorylation of PD-L1 promotes PD-L1-ARIH1 interaction and ARIH1-induced degradation. a Co-IP analysis for the interaction of K48-ubiquitin, ARIH1 (HA), and PD-L1 in HEK293T cells transfected with HA-ARIH1 and Flag-PD-L1 (WT, S279A, S283A, or 2SA), treated with MG132 (10 μM) for 6 h; HA-tagged empty vector (HA-EV) was transfected as a negative control. b Co-IP analysis for the interaction of ARIH1 and PD-L1 in HEK293T cells transfected with HA-ARIH1 and Flag-PD-L1 (WT or 2SA), treated with 10 μM ES-072 for 24 h, Flag-tagged empty vector (Flag-EV) was transfected as a negative control. c HEK293T cells were transfected with Flag-PD-L1. Co-IP analysis for the interaction of ubiquitin and PD-L1 in HEK293T cells transfected with ARIH1-siRNAs or HA-GSK3α and treated with MG132 (10 μM) for 6 h; non-targeting siRNA (si-CTRL) was transfected as a negative control. d Immunoblots of PD-L1 and ARIH1 (HA) in H1975 cells transfected with HA-ARIH1, treated with or without 5 μM LY for 6 h. e, f MFI (e) and relative quantification (f) of PD-L1 in HA-ARIH1-overexpressed H1975 cells, treated with or without 5 μM LY for 6 h. […]

GSK3α = GSK3α (Homo sapiens, UniProt P49840); experiment: In vitro kinase specificity profiling for GSK3α; assay type: biochemical
Chain of GSK3α (P49840 whole entry): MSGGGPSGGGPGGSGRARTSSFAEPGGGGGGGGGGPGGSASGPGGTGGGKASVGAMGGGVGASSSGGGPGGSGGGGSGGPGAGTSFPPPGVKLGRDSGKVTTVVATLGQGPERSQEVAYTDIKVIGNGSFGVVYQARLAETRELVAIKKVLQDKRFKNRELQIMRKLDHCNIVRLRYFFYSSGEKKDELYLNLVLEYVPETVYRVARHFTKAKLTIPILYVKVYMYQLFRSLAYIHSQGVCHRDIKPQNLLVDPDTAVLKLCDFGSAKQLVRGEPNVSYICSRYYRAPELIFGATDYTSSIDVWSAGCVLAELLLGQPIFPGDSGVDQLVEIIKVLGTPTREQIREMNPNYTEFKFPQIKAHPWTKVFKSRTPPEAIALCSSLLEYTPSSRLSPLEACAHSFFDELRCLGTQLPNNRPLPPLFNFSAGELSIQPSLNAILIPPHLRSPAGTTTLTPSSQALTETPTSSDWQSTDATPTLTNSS

C=CC(=O)Nc1cc(Nc2nccc(-c3cn(C)c4ccccc34)n2)c(OC)cc1N(C)CCN(C)C [AZD9291, Osimertinib]
IFNγ-induced membranal PD-L1 levels (PD-L1 in U937 cells; western blotting and flow cytometry, 10 μM, 12 h): dramatically reduced

O=C1NC(=O)C(c2cnc3ccccn23)=C1c1cn2c3c(cc(F)cc13)CN(C(=O)N1CCCCC1)CC2 [LY2090314]
ARIH1-overexpression-induced degradation of PD-L1 (PD-L1 in H1975 cells; H1975 cells transfected with HA-ARIH1, 5 μM LY for 6 h): rescued
reduction of PD-L1 levels induced following EGFR inhibition (PD-L1 in H1975 cells; H1975 cells, 5 μM LY2090314 with 10 μM ES-072 or AZD9291, 12 h): did block this reduction
IC50 (GSK3α; single independent tests): 0.98 nM and 0.81 nM and 0.84 nM
IC50 (GSK3α; value with spread given in main text): 0.87 ± 0.09 nM

CC(C)C[C@@H](C=O)NC(=O)[C@H](CC(C)C)NC(=O)[C@H](CC(C)C)NC(=O)OCc1ccccc1 [MG132] (Cbz-Leu-Leu-Leu-aldehyde)
decrease in the PD-L1 levels induced by ES-072 (PD-L1 in H1975 cells; H1975 cells, 10 μM ES-072 and 10 μM MG132 for 6 h): rescued

N#CC[C@H](C1CCCC1)n1cc(-c2ncnc3[nH]ccc23)cn1 [Ruxolitinib]
IFNγ-induced PD-L1 levels (PD-L1 in U937 cells; 100 ng/mL IFNγ 48 h, 10 μM Ruxolitinib 12 h): blocked

Reference: article PMC8058344, “ARIH1 signaling promotes anti-tumor immunity by targeting PD-L1 for proteasomal degradation” (Nature Communications, 2021)
